Reference: US10889581B2, “Cyclopropyl fused thiazine derivatives as beta-secretase inhibitors and methods of use” (AMGEN INC., priority 2016, dated 2021)

What was measured:
Recombinant CatD = Recombinant CatD (Homo sapiens (Human), UniProt P07339); test: In vitro enzymatic Cathepsin D (CatD) FRET assay; assay type: biochemical; conditions: pH 3.5, read-out: Cat D Enzyme IC50
human recombinant BACE2 = human recombinant BACE2 (Homo sapiens (Human), UniProt Q9Y5Z0); test: In vitro enzymatic BACE2 FRET assay; assay type: biochemical; conditions: pH 4.5, read-out: BACE2 Enzyme IC50
Chain of human recombinant BACE2 (Q9Y5Z0 63-518): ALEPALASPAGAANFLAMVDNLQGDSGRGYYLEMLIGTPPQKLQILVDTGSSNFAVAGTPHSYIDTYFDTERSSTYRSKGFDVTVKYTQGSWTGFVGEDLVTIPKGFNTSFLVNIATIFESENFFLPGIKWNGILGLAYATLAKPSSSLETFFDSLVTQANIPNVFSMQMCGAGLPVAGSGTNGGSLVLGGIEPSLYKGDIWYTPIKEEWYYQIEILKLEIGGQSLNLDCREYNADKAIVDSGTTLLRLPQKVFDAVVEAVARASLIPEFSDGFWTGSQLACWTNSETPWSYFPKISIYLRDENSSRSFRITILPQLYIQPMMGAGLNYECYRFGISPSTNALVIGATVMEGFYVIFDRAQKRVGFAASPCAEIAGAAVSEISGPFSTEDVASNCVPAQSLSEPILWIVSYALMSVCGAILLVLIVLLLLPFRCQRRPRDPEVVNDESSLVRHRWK

BACE1 [1] = biological target: T1, BACE1 (Homo sapiens (Human), UniProt P56817); test: In vitro enzymatic BACE1 FRET assay; assay type: biochemical; conditions: pH 4.5, read-out: BACE1 Enzyme IC50
Target sequence in this assay (P56817 46-501): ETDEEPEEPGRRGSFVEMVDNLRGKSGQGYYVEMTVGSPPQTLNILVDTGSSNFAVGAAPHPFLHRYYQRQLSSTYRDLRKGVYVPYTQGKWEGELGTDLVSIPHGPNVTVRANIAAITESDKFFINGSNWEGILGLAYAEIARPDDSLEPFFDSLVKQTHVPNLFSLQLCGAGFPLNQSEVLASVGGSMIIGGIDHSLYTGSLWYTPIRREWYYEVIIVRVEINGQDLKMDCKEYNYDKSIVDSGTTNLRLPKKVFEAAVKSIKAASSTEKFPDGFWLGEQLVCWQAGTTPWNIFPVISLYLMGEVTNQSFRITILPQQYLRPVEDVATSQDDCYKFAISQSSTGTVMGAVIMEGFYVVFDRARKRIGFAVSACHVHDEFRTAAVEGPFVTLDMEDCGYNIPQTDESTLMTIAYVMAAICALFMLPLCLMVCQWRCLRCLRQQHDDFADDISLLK

BACE1 [2] = biological target: T1, BACE1; test: In vitro BACE1 cell-based assay (Aβ40 in conditioned medium of cells stably expressing APP, HTRF)
Protocol: In Vitro BACE1 Cell-Based Assay
The cell-based assay measures inhibition or reduction of Aβ40 in conditioned medium of test compound treated cells expressing amyloid precursor protein. Cells stably expressing Amyloid Precursor Protein (APP) were plated at a density of 45K cells/well in 384 well plates (Corning/BioCoat 354663). The test compounds were then added to cells in 22-point dose response concentrations with the starting concentration being 62.5 μM. The compounds were diluted from stock solutions in DMSO and the final DMSO concentration of the test compounds on cells was 0.625%. The cells were cultivated overnight at 37° C. and 5% CO2 in DMEM supplemented with 10% FBS. After 24 h of incubation with the test compounds, the conditioned media was collected and the Aβ40 levels were determined using HTRF (Homogeneous Time Resolved Fluorescence). The IC50 of the compound was calculated from the percent of control or percent inhibition of Aβ40 as a function of the concentration of the test compound.
The HTRF to detect Aβ40 was performed in 384 well plates (Costar 3658). The antibody pair that were used to detect Aβ40 from cell supernatants were ConfAb40 antibody (Amgen in-house) and biotinylated 6E10 (BIOLEGEND). As an alternative to ConfAb40, a commercially available antibody, Anti-beta Amyloid 1-40 antibody [BDI350] from Abcam, Cambridge, Mass. 02139-1517 (Product code: ab20068), may be used in this assay. The concentrations were 0.35 μg/mL of ConfAb40 antibody and 1.33 μg/mL of 6E10-biotinylated antibody, as well as 4.5 μg/mL of Streptavidin Allophycocyanin Conjugate (ThermoFisher Scientific) in HTRF Buffer ([…], 1% BSA, 0.5% Tween 20).
The conditioned media was incubated with above antibodies and Streptavidin Allophycocyanin Conjugate for 30-60 minutes at 23° C. The final readout was performed on Envision from PerkinElmer.
Target sequence in this assay (P56817 46-501, species assumed): as the sequence (P56817 46-501) above

[3] = Aβ40, 24 h incubation, read-out: BACE1 Cell IC50

Chain of Recombinant CatD (P07339 65-412): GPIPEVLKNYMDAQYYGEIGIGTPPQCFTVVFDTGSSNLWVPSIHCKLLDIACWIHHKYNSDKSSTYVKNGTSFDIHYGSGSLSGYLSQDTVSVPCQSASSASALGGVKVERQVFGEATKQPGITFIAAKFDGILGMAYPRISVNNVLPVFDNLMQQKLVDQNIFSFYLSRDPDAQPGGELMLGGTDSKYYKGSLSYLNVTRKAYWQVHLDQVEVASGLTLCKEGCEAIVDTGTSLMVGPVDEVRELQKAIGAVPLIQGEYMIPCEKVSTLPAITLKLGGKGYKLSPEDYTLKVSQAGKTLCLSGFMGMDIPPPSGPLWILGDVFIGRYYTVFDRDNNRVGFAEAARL

IC50 (Recombinant CatD) [µM] | IC50 (human recombinant BACE2) [µM] | IC50 (BACE1 [1]) [µM] | IC50 (BACE1 [2]; [3]) [µM] | SMILES | IC50 (BACE1 [2]) [µM]
4870 | 4.55 | 0.08 | 0.129 | N#Cc1ccc(C#Cc2ccc(F)c([C@@]3(CF)N=C(N)S[C@@]4(CO)C[C@H]43)c2)nc1 [Example 100, 6-((3-((1S,5S,6S)-3-amino-5-(fluoromethyl)-1-(hydroxymethyl)-2-thia-4-azabicyclo[4.1.0]hept-3-en-5-yl)-4-fluorophenyl)ethynyl)nicotinonitrile] | 
614 | 4.73 | 0.084 | 0.623 | N#CC[C@]12C[C@H]1[C@@](CF)(c1cc(C#Cc3ccc(C#N)cn3)ccc1F)N=C(N)S2 [Example 106, 6-((3-((1R,5S,6S)-3-amino-1-(cyanomethyl)-5-(fluoromethyl)-2-thia-4-azabicyclo[4.1.0]hept-3-en-5-yl)-4-fluorophenyl)ethynyl)nicotinonitrile] | 
239 | 2.55 | 0.047 | 0.372 | N#C/C=C/[C@]12C[C@H]1[C@@](CF)(c1cc(C#Cc3ccc(C#N)cn3)ccc1F)N=C(N)S2 [Example 107, 6-((3-((1R,5S,6S)-3-amino-1-((E)-2-cyanovinyl)-5-(fluoromethyl)-2-thia-4-azabicyclo[4.1.0]hept-3-en-5-yl)-4-fluorophenyl)ethynyl)nicotinonitrile] | 
1160 | 2.08 | 0.047 | 0.355 | C[C@]1(c2cc(C#Cc3ccc(C#N)cn3)ccc2F)N=C(N)S[C@]2(CO)[C@H]1C2(F)F [Example 110, 6-((3-((1S,5S,6R)-3-amino-7,7-difluoro-1-(hydroxymethyl)-5-methyl-2-thia-4-azabicyclo[4.1.0]hept-3-en-5-yl)-4-fluorophenyl)ethynyl)nicotinonitrile] | 
300 | 0.405 | 0.019 | 0.072 | N#Cc1ccc(C#Cc2ccc(F)c([C@@]3(CF)N=C(N)S[C@@]4(/C=C/C(=O)N5CCOCC5)C[C@H]43)c2)nc1 [Example 111, 6-((3-((1R,5S,6S)-3-amino-5-(fluoromethyl)-1-((E)-3-morpholino-3-oxoprop-1-en-1-yl)-2-thia-4-azabicyclo[4.1.0]hept-3-en-5-yl)-4-fluorophenyl)ethynyl)nicotinonitrile] | 
176 | 1.59 | 0.025 | 0.139 | CN(C)C(=O)/C=C/[C@]12C[C@H]1[C@@](CF)(c1cc(C#Cc3ccc(C#N)cn3)ccc1F)N=C(N)S2 [Example 112, (E)-3-((1R,5S,6S)-3-amino-5-(5-((5-cyanopyridin-2-yl)ethynyl)-2-fluorophenyl)-5-(fluoromethyl)-2-thia-4-azabicyclo[4.1.0]hept-3-en-1-yl)-N,N-dimethylacrylamide] | 
1420 | 3.76 | 0.116 | 0.153 | N#Cc1ccc(C#Cc2ccc(F)c([C@@]3(CF)N=C(N)S[C@@]4(CC(N)=O)C[C@H]43)c2)nc1 [Example 113, 2-((1R,5S,6S)-3-amino-5-(5-((5-cyanopyridin-2-yl)ethynyl)-2-fluorophenyl)-5-(fluoromethyl)-2-thia-4-azabicyclo[4.1.0]hept-3-en-1-yl)acetamide] | 
> 400 | 3.37 | 0.637 | 0.677 | C[C@]1(c2cc(C#Cc3ccc(C#N)cn3)cnc2F)N=C(N)S[C@@]2(CF)C[C@H]21 [Example 114, 6-((5-((1S,5S,6S)-3-amino-1-(fluoromethyl)-5-methyl-2-thia-4-azabicyclo[4.1.0]hept-3-en-5-yl)-6-fluoropyridin-3-yl)ethynyl)nicotinonitrile] | 
1030 | 2.18 | 0.109 | 0.142 | Cc1cn(C[C@]23C[C@H]2[C@@](CF)(c2cc(C#Cc4ccc(C#N)cn4)ccc2F)N=C(N)S3)nn1 [Example 115, 6-((3-((1S,5S,6S)-3-amino-5-(fluoromethyl)-1-((4-methyl-1H-1,2,3-triazol-1-yl)methyl)-2-thia-4-azabicyclo[4.1.0]hept-3-en-5-yl)-4-fluorophenyl)ethynyl)nicotinonitrile] | 

More lines, now with the values behind:

SMILES | IC50 (Recombinant CatD) [µM] | IC50 (human recombinant BACE2) [µM] | IC50 (BACE1 [1]) [µM] | IC50 (BACE1 [2]; [3]) [µM] | IC50 (BACE1 [2]) [µM]
N#Cc1ccc(C#Cc2ccc(F)c([C@@]3(CF)N=C(N)S[C@@]4(CF)C[C@H]43)c2)nc1 [Example 101, 6-((3-((1S,5S,6S)-3-amino-1,5-bis(fluoromethyl)-2-thia-4-azabicyclo[4.1.0]hept-3-en-5-yl)-4-fluorophenyl)ethynyl)nicotinonitrile] | 2860 | 6.04 | 0.104 | 0.271 | 
NC1=N[C@](CF)(c2cc(C#Cc3ccc(Cl)cn3)ccc2F)[C@@H]2C[C@]2(CF)S1 [Example 102, (1S,5S,6S)-5-(5-((5-chloropyridin-2-yl)ethynyl)-2-fluorophenyl)-1,5-bis(fluoromethyl)-2-thia-4-azabicyclo[4.1.0]hept-3-en-3-amine] | 673 | 0.445 | 0.182 | 0.685 | 
N#Cc1cnc(C#Cc2ccc(F)c([C@@]3(CF)N=C(N)S[C@@]4(CF)C[C@H]43)c2)cn1 [Example 103, 5-((3-((1S,5S,6S)-3-amino-1,5-bis(fluoromethyl)-2-thia-4-azabicyclo[4.1.0]hept-3-en-5-yl)-4-fluorophenyl)ethynyl)pyrazine-2-carbonitrile] | 229 | 1.59 | 0.086 | 3.91 | 
Cc1cc(C#N)cnc1C#Cc1ccc(F)c([C@@]2(CF)N=C(N)S[C@@]3(CF)C[C@H]32)c1 [Example 104, 6-((3-((1S,5S,6S)-3-amino-1,5-bis(fluoromethyl)-2-thia-4-azabicyclo[4.1.0]hept-3-en-5-yl)-4-fluorophenyl)ethynyl)-5-methylnicotinonitrile] | 1300 | 2.28 | 0.038 | 0.231 | 
CC#CCOc1ccc(C#Cc2ccc(F)c([C@@]3(CF)N=C(N)S[C@@]4(CF)C[C@H]43)c2)nc1 [Example 105, (1S,5S,6S)-5-(5-((5-(but-2-yn-1-yloxy)pyridin-2-yl)ethynyl)-2-fluorophenyl)-1,5-bis(fluoromethyl)-2-thia-4-azabicyclo[4.1.0]hept-3-en-3-amine] | 500 | 10.3 | 0.096 | 0.746 | 
NC1=N[C@](CF)(c2cc(C#Cc3ccc(OCc4ncco4)cn3)ccc2F)[C@@H]2C[C@]2(CF)S1 [Example 108, (1S,5S,6S)-5-(2-fluoro-5-((5-(oxazol-2-ylmethoxy)pyridin-2-yl)ethynyl)phenyl)-1,5-bis(fluoromethyl)-2-thia-4-azabicyclo[4.1.0]hept-3-en-3-amine] | 784 | 14.1 | 0.735 | 2.02 | 
N#Cc1cnc(C#Cc2ccc(F)c([C@@]3(CF)N=C(N)S[C@@]4(CF)C[C@H]43)c2)s1 [Example 109, 2-((3-((1S,5S,6S)-3-amino-1,5-bis(fluoromethyl)-2-thia-4-azabicyclo[4.1.0]hept-3-en-5-yl)-4-fluorophenyl)ethynyl)thiazole-5-carbonitrile] | 705 | 0.092 | 0.057 | 1.11 | 
Cc1cc(C#N)cnc1C#Cc1ccc(F)c([C@@]2(CF)N=C(N)S[C@@]3(/C=C/C(=O)N4CCOCC4)C[C@H]32)c1 [Example 116, 6-((3-((1R,5S,6S)-3-amino-5-(fluoromethyl)-1-((E)-3-morpholino-3-oxoprop-1-en-1-yl)-2-thia-4-azabicyclo[4.1.0]hept-3-en-5-yl)-4-fluorophenyl)ethynyl)-5-methylnicotinonitrile] | 172 | 0.166 | 0.005 | 0.018 | 
NC1=N[C@](CF)(c2cc(C#Cc3ncc(Cl)cn3)ccc2F)[C@@H]2C[C@]2(/C=C/C(=O)N2CCOCC2)S1 [Example 117, (E)-3-((1R,5S,6S)-3-amino-5-(5-((5-chloropyrimidin-2-yl)ethynyl)-2-fluorophenyl)-5-(fluoromethyl)-2-thia-4-azabicyclo[4.1.0]hept-3-en-1-yl)-1-morpholinoprop-2-en-1-one] | 169 | 0.012 | 0.021 | 0.029 | 
COC[C@]12CC1[C@@](C)(c1cc(C#Cc3ncc(Cl)cc3C)ccc1F)N=C(N)S2 (stereo partly drawn) [Example 134, (1S,5S)-5-(5-((5-chloro-3-methylpyridin-2-yl)ethynyl)-2-fluorophenyl)-1-(methoxymethyl)-5-methyl-2-thia-4-azabicyclo[4.1.0]hept-3-en-3-amine] |  |  |  |  | 0.951
